# Laboratory results from ChEMBL document CHEMBL1201862, “PubChem BioAssay data set” (2004).
# Activity calls are given as the source filed them.
# How the values were obtained:
# [1] = HPDE-C7 pancreatic duct cell viability loss – fluorescence, HTS (AID 430); type: functional, cell-based; details: Homo sapiens
# [2] = viability loss of HPDE-C7K cells – cell-based, fluorescence, HTS, primary screen (AID 431); type: functional; details: Homo sapiens
# Estrogen receptor = target: T1, Estrogen receptor (Homo sapiens, UniProt P03372); assay: ERα coactivator recruitment enhancers – biochemical, TR-FRET, ERα LBD, dose response (AID 737)
# T1 sequence (P03372 whole entry): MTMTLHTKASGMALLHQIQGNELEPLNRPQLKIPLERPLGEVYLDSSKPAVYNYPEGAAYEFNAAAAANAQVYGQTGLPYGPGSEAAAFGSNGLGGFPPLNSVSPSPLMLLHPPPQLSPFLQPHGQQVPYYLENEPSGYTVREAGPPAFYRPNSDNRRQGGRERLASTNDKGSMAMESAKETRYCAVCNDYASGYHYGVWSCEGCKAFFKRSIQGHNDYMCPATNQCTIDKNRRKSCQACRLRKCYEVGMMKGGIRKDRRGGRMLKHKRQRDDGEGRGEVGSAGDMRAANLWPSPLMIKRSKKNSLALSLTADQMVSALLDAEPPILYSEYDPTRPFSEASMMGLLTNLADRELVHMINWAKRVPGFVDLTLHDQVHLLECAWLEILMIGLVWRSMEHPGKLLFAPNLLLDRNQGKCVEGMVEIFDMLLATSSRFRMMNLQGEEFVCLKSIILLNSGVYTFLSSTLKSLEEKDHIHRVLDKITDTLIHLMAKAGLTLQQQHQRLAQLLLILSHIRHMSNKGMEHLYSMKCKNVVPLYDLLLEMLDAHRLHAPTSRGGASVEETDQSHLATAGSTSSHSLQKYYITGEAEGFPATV
# Aminopeptidase N = target: T2, Aminopeptidase N (Plasmodium falciparum FcB1/Columbia, UniProt O96935); assay: malaria alanyl aminopeptidase activity blockers – biochemical, fluorogenic H-Leu-NHMec substrate, 1536-well (AID 1445); parameters: species or system Plasmodium falciparum 3D7, 3D7
# T2 sequence (O96935 whole entry): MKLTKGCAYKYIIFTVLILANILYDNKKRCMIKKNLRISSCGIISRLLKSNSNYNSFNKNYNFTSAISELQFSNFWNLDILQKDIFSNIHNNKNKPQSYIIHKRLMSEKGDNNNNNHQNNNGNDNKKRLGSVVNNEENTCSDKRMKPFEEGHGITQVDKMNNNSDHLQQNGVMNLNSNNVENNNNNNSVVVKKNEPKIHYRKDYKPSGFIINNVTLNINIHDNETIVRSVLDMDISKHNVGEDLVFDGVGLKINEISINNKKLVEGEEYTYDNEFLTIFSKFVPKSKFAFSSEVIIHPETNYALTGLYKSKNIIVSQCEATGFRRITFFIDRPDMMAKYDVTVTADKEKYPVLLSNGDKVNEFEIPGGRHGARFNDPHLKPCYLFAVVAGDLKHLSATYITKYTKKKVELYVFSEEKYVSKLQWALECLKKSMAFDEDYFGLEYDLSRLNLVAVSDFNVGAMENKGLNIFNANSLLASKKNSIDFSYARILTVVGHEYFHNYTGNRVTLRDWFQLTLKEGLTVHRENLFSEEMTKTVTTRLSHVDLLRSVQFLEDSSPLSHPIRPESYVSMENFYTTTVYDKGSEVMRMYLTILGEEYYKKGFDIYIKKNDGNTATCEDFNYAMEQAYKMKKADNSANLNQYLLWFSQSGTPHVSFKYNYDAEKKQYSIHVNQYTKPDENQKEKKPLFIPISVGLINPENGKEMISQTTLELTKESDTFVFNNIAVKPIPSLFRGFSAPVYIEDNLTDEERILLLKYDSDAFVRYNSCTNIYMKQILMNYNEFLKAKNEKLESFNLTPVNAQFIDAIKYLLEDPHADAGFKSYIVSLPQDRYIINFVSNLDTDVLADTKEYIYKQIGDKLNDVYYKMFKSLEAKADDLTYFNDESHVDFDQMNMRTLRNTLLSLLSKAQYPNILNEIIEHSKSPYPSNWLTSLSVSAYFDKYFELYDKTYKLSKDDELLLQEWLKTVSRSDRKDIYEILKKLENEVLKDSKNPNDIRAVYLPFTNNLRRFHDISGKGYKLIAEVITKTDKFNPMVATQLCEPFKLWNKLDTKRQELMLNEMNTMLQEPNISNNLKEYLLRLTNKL
# HEK293 = assay: Fluorescence-based counterscreen for potentiators or agonists of NPY-Y2: cell-based high-throughput dose response assay to identify inhibitors of cyclic nucleotide gated ion channel (CNGC) activity. In this assay, the parental HEK293 cell line transfected with a cyclic-nucleotide gated ion channel (CNGC)-based cAMP sensor is used to measure inhibition of isoproterenol-induced CNGC activity by test compound.; type: functional; details: Homo sapiens;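 also: stimulus is 1 µM isoproterenol at EC100 plus PDE inhibitor Ro 20-1724 at 25 µM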
# [3] = target: Neuropeptide Y receptor type 2 (Homo sapiens, UniProt P49146); assay: Fluorescence-based cell-based high-throughput dose response assay for agonists of NPY-Y2. [Related pubchem assays: 1703 (Screening assay (CNGC inhibitors).), 1359 (Screening assay (NPY-Y2 potentiators or agonists).), 1304 (Screening assay (NPY-Y1 potentiators or agonists).), 1710 (Screening assay (NPY-Y2 agonists).), 1791 (Summary AID.)]; type: functional
# [4] = CCR5-tropic HIV-1 fusion blockers – cell-based, CCR5-tropic Env, dose response (AID 2279); type: functional
# [5] = target: Neuropeptide Y receptor type 1 (Homo sapiens, UniProt P25929); assay: Fluorescence-based counterscreen for agonists of NPY-Y2: cell-based high-throughput dose response assay for agonists of NPY-Y1.; type: functional
# Vero = assay: viability of Vero cells under compound – cytotoxicity control for flavivirus capping enzyme inhibitors (AID 588742); type: functional; details: Chlorocebus sabaeus
# [6] = target: T3, Probable nicotinate-nucleotide adenylyltransferase (Staphylococcus aureus (strain N315), UniProt P65502); type: functional, Staphylococcus aureus subsp. aureus N315;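 as to IC50 Mean: confirmatory dose-response retesting of NadD inhibitor hits first found in an ultra-high-throughput screen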
# [7] = target: T3, Probable nicotinate-nucleotide adenylyltransferase; type: functional, Staphylococcus aureus subsp. aureus N315; details: read-out: IC50_Mean
# [8] = target: Induced myeloid leukemia cell differentiation protein Mcl-1 (Homo sapiens, UniProt Q07820); assay: blockers of MCL1 binding to BIM peptide – biochemical, fluorescence polarization, BIM-BH3 peptide, 1536-well, dose response (AID 2217)
# Bcl-2-like protein 1 = Bcl-2-like protein 1 (Homo sapiens, UniProt Q07817); assay: blockers of BCLXL peptide binding – biochemical, fluorescence polarization, 1536-well, selectivity assay for MCL1 inhibitor project, dose response (AID 2218)
# [9] = target: T4, Carboxy-terminal domain RNA polymerase II polypeptide A small phosphatase 1 (Homo sapiens, UniProt Q9GZU7); assay: CTDSP1 inhibitors, concentration-response, biochemical, absorbance readout, ultra-high-throughput screen actives (AID 540297); type: functional
# T4 sequence (Q9GZU7 whole entry): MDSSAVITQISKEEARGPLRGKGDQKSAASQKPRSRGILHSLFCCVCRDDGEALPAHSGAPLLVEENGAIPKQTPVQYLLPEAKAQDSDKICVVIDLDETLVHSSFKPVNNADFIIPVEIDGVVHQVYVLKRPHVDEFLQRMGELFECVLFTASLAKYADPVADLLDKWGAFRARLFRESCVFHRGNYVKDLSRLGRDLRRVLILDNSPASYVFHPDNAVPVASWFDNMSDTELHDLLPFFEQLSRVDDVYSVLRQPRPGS
# Protein Tat = target: T5, Protein Tat (Human immunodeficiency virus type 1 group M subtype B (isolate HXB2)(HIV-1), UniProt P04608); type: functional;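 also: tat binding to TAR RNA read out by fluorescence polarization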
# T5 sequence (P04608 whole entry): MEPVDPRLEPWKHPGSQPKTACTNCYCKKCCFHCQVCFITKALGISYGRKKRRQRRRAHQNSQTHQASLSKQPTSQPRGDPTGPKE
# [10] = NIH-3T3 fibroblast cytotoxicity, dose response, cytotoxicity control, cell-based, fluorescence, Alamar Blue, secondary assay (AID 2327); type: functional;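 also: NIH-3T3 mouse fibroblasts cultured with fluconazole at 8 µg/mL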
# [11] = luciferase reporter signal suppression in cells – H4 neuroglioma cells, luminescence, dose response (AID 1990); type: functional, cell-based
# cells [12] = type: functional, cell-based
# [13] = Luminescence Cell-Based Dose Response HTS to Identify Inhibitors of 5'UTR Stem-Loop Driven Prion Protein mRNA Translation in H4 Neuroglioblastoma Cells. [Related pubchem assays: 1827 (Project Summary), 1813 (Primary HTS)]; type: functional
# [14] = target: T6, Heat shock factor protein 1 (Mus musculus, UniProt P38532); assay: decrease of HSF1-responsive luciferase luminescence – cell-based, NIH3T3, dose retest, confirmation (AID 2382); type: functional;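 also: NIH3T3 fibroblasts with HSF1-driven luciferase reporter stressed by proteasome inhibitor MG132; luminescence from HSF1-driven luciferase expression after 8 hours of MG132 stress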
# T6 sequence (P38532 whole entry): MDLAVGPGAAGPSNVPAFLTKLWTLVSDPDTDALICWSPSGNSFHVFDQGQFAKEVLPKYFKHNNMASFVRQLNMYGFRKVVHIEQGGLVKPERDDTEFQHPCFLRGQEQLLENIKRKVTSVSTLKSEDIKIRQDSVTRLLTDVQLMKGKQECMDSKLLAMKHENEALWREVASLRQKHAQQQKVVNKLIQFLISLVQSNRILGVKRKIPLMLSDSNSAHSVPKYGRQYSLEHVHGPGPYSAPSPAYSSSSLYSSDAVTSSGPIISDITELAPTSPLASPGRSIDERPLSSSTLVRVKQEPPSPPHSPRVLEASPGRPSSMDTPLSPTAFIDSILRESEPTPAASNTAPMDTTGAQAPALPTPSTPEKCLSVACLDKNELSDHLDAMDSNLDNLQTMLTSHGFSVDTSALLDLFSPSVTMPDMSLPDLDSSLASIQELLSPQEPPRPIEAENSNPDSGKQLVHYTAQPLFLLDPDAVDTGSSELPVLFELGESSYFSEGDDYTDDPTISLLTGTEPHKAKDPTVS
# [15] = alpha-synuclein stem-loop luciferase translation blockers – H4 neuroglioma cells, luminescence, confirmation (AID 1988); type: functional, cell-based
# [16] = fluconazole-exposed Candida albicans growth modulators – fluorescence, retest, confirmation (AID 2467); type: functional, cell-based
# [17] = target: T7, Mannose-6-phosphate isomerase (Homo sapiens, UniProt P34949); assay: MPI enzyme activity inhibition – biochemical, fluorescence intensity, coupled assay, primary screen (AID 1209)
# T7 sequence (P34949 whole entry): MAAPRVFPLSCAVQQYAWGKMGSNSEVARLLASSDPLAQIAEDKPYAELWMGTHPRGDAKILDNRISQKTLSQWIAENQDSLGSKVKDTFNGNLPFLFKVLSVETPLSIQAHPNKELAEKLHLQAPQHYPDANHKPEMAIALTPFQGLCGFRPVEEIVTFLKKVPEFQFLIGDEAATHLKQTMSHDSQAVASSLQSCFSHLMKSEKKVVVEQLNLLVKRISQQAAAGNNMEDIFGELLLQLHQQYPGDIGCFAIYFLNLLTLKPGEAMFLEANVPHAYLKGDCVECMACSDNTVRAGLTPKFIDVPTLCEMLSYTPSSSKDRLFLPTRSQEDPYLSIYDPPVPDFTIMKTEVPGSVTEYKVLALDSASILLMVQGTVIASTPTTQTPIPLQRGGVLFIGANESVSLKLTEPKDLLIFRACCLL
# [18] = Trypanosoma cruzi growth suppression in host cells – NIH3T3 host cells, beta-gal luminescence, confirmation (AID 2044); type: functional, cell-based;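 also: intracellular parasites grown in NIH/3T3 mouse fibroblasts as host cells; luminescent beta-galactosidase reporter signal from transgenic T. cruzi replicating inside host cells; inhibitors lower the luminescence signal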
# cells [19] = type: functional, cell-based; remark: listed apart in the source
# [20] = NIH3T3 cell viability loss – ATP luminescence, mouse fibroblasts, counter-screen, dose response (AID 2010); type: functional, cell-based;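 also: cells exposed to compound for about 90 hours before reading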
# Nonstructural protein 1 = Nonstructural protein 1 (Influenza A virus, UniProt Q194T2); type: functional, Influenza A virus (A/California/07/2009(H1N1))
# INS1 = assay: INS-1E survival protection against cytokine death – cell-based, luminescence, retest, dose response (AID 449756); type: functional; details: Rattus norvegicus;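 also: cell death triggered by IL-1 beta plus TNF-alpha plus IFN-gamma mixture; protective hits raise ATP signal compared with cytokine alone wells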
# [21] = reduction of Shn3 3'UTR-driven luciferase in osteoblasts – cell-based, Clone20 osteoblasts, firefly luciferase, cherry-picked, dose response (AID 624132); type: functional;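 also: firefly luciferase luminescence from reporter carrying the Shn3 3'UTR in osteoblasts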
# [22] = loss of viability in HepG2 cells – cell-based, CellTiter-Glo, cherry-picked, cytotoxicity control for Shn3 inhibitor project, dose response (AID 624134); type: functional
# [23] = non-specific 3'UTR reporter inhibition in Clone20-Shn3RL – cell-based, Renilla luciferase, cherry-picked, counter-screen for Shn3 inhibitor project, dose response (AID 624133); type: functional
# [24] = mitochondrial function rescue without frataxin homolog – Friedreich's ataxia, plus single-dose screen, dose response (AID 1465); type: functional;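 also: yeast depleted of Yfh1p frataxin homolog grown on glycerol needing respiration; WST-1 tetrazolium dye reduction as measure of cellular dehydrogenase metabolic activity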
# T3 sequence (P65502 whole entry): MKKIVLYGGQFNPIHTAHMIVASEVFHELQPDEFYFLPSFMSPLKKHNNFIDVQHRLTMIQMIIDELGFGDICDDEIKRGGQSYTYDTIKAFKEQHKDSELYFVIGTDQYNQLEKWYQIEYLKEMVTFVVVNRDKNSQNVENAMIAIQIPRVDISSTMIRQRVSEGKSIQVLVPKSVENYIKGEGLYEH
# Neuropeptide Y receptor type 2, sequence (P49146 whole entry, the tested form may be a part): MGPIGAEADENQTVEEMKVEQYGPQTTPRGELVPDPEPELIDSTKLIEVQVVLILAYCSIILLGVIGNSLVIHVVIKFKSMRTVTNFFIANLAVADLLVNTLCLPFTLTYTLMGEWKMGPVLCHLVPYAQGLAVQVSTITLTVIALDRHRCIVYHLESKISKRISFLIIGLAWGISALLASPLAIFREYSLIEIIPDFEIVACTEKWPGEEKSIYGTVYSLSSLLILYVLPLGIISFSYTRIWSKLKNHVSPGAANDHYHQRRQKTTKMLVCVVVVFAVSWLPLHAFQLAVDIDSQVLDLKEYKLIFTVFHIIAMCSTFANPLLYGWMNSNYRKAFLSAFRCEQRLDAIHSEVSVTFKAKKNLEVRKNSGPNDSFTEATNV
# Nonstructural protein 1, sequence (Q194T2 whole entry): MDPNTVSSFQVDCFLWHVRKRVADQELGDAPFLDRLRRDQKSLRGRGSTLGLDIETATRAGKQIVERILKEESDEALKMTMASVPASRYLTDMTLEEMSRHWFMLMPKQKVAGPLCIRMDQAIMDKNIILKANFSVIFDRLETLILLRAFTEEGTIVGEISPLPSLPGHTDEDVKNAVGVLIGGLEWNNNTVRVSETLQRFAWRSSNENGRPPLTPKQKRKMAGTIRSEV
# Neuropeptide Y receptor type 1, sequence (P25929 whole entry): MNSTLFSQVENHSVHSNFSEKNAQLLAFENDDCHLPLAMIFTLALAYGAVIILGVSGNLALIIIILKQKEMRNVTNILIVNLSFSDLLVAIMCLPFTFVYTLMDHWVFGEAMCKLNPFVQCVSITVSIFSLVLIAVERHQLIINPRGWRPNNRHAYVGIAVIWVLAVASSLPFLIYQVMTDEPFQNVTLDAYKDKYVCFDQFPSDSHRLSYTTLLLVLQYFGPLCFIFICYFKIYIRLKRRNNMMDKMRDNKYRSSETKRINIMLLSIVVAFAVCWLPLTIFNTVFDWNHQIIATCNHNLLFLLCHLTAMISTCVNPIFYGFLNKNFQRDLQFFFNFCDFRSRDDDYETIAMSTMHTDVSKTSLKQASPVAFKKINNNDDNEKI
# Bcl-2-like protein 1, sequence (Q07817 whole entry, the tested form may be a part): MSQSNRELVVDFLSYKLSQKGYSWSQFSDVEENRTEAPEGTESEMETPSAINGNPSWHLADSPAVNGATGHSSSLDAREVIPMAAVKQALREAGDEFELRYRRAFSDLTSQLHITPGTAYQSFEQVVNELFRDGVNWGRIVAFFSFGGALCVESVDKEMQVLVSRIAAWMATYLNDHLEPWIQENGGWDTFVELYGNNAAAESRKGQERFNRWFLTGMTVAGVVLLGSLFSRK
# Induced myeloid leukemia cell differentiation protein Mcl-1, sequence (Q07820 whole entry): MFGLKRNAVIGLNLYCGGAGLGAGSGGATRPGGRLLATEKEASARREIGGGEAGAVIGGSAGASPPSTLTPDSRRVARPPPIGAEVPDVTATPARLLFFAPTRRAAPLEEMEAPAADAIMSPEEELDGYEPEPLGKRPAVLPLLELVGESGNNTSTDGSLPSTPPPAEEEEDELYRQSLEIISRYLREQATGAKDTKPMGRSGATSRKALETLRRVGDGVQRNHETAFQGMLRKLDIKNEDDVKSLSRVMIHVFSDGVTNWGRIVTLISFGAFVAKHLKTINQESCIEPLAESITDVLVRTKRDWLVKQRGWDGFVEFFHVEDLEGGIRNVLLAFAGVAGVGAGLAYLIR
compound,measurement,setting,value
CCC(=O)Oc1ccc(C(CC)C(CC)c2ccc(OC(=O)CC)cc2)cc1 (configuration not stated),EC50,[1],9.19 µM (active)
same,EC50,[2],10.7 µM (active)
same,EC50,Estrogen receptor,10.2 µM (active)
COc1ccccc1NS(=O)(=O)c1cccc(N2C(=O)/C(=C\Nc3ccccc3C(=O)O)c3ccccc3C2=O)c1,IC50,Aminopeptidase N,30.4 µM (active)
same,EC50,HEK293,13.4 µM (not active)
same,EC50,[3],20.1 µM (not active)
same,IC50,[4],19.6 µM (active)
same,EC50,[5],> 11.8 µM (not active)
same,CC50,Vero,> 40 µM (active)
same,IC50,[6],2.81 µM (active)
same,IC50,[7],22.2 µM (active)
Cc1ccc(NC(=O)c2cc(-c3ccc(C)o3)nc3ccccc23)nc1,IC50,[8],> 109 µM (not active)
same,IC50,Bcl-2-like protein 1,> 109 µM (not active)
same,IC50,[9],4.78 µM (active)
same,IC50,Protein Tat,> 100 µM (active)
Oc1c(CN2CCOCC2)cc(COCc2ccccc2)c2cccnc12,EC50,[10],> 160 µM (inactive)
same,EC50,[11],4.97 µM (active)
same,EC50,cells [12],6.33 µM (active)
same,EC50,[13],5.43 µM (active)
same,EC50,[14],36.3 µM (active)
same,EC50,[15],4.24 µM (active)
same,EC50,[16],1.28 µM (active)
same,IC50,[17],25.7 µM (active)
same,EC50,[18],1.26 µM (active)
same,EC50,cells [19],> 350 µM (not active)
same,EC50,[20],28 µM (active)
same,IC50,Nonstructural protein 1,4.95 µM (active)
same,AC50,INS1,2.39 µM (active)
same,AC50,[21],1.28 µM (active)
same,AC50,[22],2.13 µM (active)
same,AC50,[23],3.15 µM (active)
S=C(NCc1ccc2c(c1)OCO2)Nc1ccc(-c2nc3ccccc3[nH]2)cc1,EC50,[24],> 100 µM (active)
